{"source": "ChEMBL document CHEMBL1201862", "about": "“PubChem BioAssay data set” (2004)", "key": {"Cytochrome P450 3A4": {"molecular_target": "Cytochrome P450 3A4 (Homo sapiens, UniProt P08684)", "sequence (P08684 whole entry)": "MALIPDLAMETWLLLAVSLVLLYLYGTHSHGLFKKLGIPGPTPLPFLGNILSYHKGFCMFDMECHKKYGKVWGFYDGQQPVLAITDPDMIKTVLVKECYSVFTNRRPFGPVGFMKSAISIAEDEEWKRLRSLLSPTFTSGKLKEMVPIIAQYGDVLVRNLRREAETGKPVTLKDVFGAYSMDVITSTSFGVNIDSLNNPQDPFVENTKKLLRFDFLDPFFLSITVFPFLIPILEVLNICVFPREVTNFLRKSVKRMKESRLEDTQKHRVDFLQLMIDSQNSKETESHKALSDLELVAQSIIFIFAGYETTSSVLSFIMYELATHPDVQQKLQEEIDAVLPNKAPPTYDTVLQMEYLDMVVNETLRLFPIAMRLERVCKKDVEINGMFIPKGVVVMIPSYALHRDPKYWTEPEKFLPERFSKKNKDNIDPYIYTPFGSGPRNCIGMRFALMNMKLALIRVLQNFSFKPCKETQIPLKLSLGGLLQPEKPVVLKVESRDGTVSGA"}, "[1]": {"test": "Luminescence Cell-Based Dose Retest to Confirm Inhibitors of Cancer Stem Cells. [Related pubchem assays (depositor defined):AID2717, AID2721]", "type": "functional", "settings": "Homo sapiens"}, "Cytochrome P450 2C19": {"molecular_target": "Cytochrome P450 2C19 (Homo sapiens, UniProt P33261)", "sequence (P33261 whole entry)": "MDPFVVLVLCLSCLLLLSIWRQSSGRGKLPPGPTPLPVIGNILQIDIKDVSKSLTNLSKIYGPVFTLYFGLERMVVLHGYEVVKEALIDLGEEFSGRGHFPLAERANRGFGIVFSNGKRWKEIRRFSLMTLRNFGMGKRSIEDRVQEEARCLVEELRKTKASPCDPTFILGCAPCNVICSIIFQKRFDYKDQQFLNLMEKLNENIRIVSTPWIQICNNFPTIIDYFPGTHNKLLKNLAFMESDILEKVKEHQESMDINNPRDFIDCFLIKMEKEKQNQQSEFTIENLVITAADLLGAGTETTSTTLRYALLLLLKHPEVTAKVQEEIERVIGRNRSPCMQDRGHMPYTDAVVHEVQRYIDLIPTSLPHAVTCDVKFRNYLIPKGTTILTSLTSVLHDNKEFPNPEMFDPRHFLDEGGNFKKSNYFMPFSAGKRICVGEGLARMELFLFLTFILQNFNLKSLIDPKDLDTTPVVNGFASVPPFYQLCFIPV", "test": "Cytochrome panel assay with activity outcomes. Panel member name: p450-cyp2c19 Compounds with AC50 equal or less than 10 uM are considered active", "type": "functional", "settings": "read-out: AC50"}, "Cytochrome P450 2D6": {"molecular_target": "Cytochrome P450 2D6 (Homo sapiens, UniProt P10635)", "sequence (P10635 whole entry)": "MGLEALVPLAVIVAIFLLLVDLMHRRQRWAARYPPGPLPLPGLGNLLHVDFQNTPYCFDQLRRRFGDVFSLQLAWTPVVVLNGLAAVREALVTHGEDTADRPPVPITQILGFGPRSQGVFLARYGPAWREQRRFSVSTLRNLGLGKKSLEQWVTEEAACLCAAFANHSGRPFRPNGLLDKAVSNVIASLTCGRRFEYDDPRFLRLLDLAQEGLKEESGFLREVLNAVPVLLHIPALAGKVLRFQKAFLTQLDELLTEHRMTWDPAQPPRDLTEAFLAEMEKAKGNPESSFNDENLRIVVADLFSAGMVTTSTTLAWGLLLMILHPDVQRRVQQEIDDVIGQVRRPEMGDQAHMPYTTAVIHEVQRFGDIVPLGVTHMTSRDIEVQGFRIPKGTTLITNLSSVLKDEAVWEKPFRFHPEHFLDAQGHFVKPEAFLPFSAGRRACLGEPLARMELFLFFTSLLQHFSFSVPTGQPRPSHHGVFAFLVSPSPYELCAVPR"}, "Streptokinase A": {"molecular_target": "T1, Streptokinase A (Streptococcus pyogenes serotype M1, UniProt P10520)", "T1 sequence (P10520 whole entry)": "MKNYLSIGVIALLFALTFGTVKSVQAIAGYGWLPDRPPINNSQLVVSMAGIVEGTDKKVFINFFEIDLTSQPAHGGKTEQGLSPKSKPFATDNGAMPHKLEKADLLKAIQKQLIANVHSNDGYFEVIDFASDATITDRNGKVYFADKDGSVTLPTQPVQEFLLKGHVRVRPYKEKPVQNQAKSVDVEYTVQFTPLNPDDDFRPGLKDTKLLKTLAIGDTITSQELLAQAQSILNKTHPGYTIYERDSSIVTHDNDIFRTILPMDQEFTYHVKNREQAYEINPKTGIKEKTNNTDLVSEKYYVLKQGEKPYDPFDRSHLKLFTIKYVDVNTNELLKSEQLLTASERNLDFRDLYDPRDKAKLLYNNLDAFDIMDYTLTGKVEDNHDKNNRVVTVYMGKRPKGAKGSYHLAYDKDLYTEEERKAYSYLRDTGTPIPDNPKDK", "test": "viability-normalized secreted streptokinase activity reduction – plasminogen activation absorbance, OD405, dose response (AID 1914);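 further: secreted streptokinase activity via plasminogen activation per viability signal from cell pellet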", "type": "functional, Streptococcus pyogenes M1 GAS"}, "[2]": {"tested_on": "Streptococcus sp. 'group A'", "test": "Streptococcus pyogenes SK(-)GAS viability under kanamycin – luminescence, BacTiterGlo, confirmation, counter-screen for streptokinase expression inhibitor project, dose response (AID 1900)", "type": "functional, organism-based"}, "Streptococcus": {"tested_on": "Streptococcus", "test": "GAS UMAA2166 growth inhibition – luminescence, BacTiterGlo, counter-screen for streptokinase expression inhibitor project, dose response (AID 1915);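 further: potency for reduction of bacterial viability or growth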", "type": "functional, organism-based"}, "[3]": {"test": "Trypanosoma cruzi growth suppression in host cells – NIH3T3 host cells, beta-gal luminescence, confirmation (AID 2044);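 further: intracellular parasites grown in NIH/3T3 mouse fibroblasts as host cells; luminescent beta-galactosidase reporter signal from transgenic T. cruzi replicating inside host cells; inhibitors lower the luminescence signal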", "type": "functional, cell-based"}, "[4]": {"test": "NIH3T3 cell viability loss – ATP luminescence, mouse fibroblasts, counter-screen, dose response (AID 2010);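 further: cells exposed to compound for about 90 hours before reading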", "type": "functional, cell-based"}, "Cytochrome P450 1A2": {"molecular_target": "T2, Cytochrome P450 1A2 (Homo sapiens, UniProt P05177)", "T2 sequence (P05177 whole entry)": "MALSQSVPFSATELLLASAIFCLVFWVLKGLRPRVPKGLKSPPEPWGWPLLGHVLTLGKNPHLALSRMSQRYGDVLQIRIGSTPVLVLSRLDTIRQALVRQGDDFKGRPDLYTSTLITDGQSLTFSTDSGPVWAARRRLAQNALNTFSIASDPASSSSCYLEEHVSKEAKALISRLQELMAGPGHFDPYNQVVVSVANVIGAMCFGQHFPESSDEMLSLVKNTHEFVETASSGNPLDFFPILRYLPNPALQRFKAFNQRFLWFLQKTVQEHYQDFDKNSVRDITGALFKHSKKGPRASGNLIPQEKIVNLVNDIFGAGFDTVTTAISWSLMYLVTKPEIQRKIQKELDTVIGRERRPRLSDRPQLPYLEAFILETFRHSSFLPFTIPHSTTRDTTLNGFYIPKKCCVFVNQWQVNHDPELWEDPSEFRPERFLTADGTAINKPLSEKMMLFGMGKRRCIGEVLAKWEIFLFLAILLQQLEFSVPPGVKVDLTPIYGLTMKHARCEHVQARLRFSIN"}, "Cytochrome P450 2C9": {"molecular_target": "Cytochrome P450 2C9 (Homo sapiens, UniProt P11712)", "sequence (P11712 whole entry)": "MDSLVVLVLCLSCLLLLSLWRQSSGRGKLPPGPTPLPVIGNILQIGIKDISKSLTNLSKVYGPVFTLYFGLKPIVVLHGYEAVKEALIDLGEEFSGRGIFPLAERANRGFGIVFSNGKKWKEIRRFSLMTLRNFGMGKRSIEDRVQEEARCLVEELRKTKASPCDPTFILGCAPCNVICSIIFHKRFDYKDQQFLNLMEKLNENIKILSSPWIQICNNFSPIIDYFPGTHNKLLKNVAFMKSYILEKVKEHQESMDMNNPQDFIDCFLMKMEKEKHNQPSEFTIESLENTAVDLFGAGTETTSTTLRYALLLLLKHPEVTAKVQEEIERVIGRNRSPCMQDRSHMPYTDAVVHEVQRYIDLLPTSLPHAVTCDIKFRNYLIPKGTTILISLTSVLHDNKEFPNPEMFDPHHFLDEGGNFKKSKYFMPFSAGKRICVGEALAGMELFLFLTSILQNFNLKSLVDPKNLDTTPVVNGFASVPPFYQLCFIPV"}}, "note": "The source made the active and inactive calls.", "data": [{"molecule": "Cc1ccccc1C(=N)c1ccccc1Cc1cccc2ccccc12", "values": [{"measurement": "AC50", "setting": "Cytochrome P450 3A4", "result": "1.58 µM (inconclusive)"}]}, {"molecule": "Cc1cc(C)cc(C(=O)Nc2nnc(SCC(=O)N3CCCc4ccccc43)s2)c1", "values": [{"measurement": "AC50", "setting": "[1]", "result": "4.46 µM (active)"}]}, {"molecule": "Cc1ccc(Nc2ncccc2C(=O)NCc2cccs2)c(C)c1", "values": [{"measurement": "AC50", "setting": "Cytochrome P450 2C19", "result": "7.08 µM (inconclusive)"}, {"measurement": "AC50", "setting": "Cytochrome P450 2D6", "result": "25.1 µM (inconclusive)"}]}, {"molecule": "CC1C/C(=N\\NC(=S)NCc2ccccc2)CC(C)(C)C1", "note": "(stereo not drawn)", "values": [{"measurement": "EC50", "setting": "Streptokinase A", "result": "> 150 µM (not active)"}, {"measurement": "EC50", "setting": "[2]", "result": "6.08 µM (active)"}, {"measurement": "EC50", "setting": "Streptococcus", "result": "10.4 µM (active)"}]}, {"molecule": "Clc1cccc(Cl)c1C1Nc2cccc3cccc(c23)N1", "values": [{"measurement": "EC50", "setting": "Streptokinase A", "result": "> 50 µM (not active)"}, {"measurement": "EC50", "setting": "[2]", "result": "5.07 µM (active)"}, {"measurement": "EC50", "setting": "Streptococcus", "result": "19.1 µM (active)"}]}, {"molecule": "c1csc(-c2csc3nc(CN4CCOCC4)nc(NCc4ccc5c(c4)OCO5)c23)c1", "values": [{"measurement": "EC50", "setting": "Streptokinase A", "result": "59.9 µM (active)"}, {"measurement": "EC50", "setting": "[3]", "result": "1.31 µM (active)"}, {"measurement": "EC50", "setting": "[2]", "result": "12.3 µM (active)"}, {"measurement": "EC50", "setting": "[4]", "result": "> 60 µM (not active)"}, {"measurement": "EC50", "setting": "Streptococcus", "result": "> 150 µM (not active)"}]}, {"molecule": "Cc1ccc(C(=O)NC2CCCC2)s1", "values": [{"measurement": "EC50", "setting": "Streptokinase A", "result": "> 150 µM (not active)"}, {"measurement": "EC50", "setting": "[2]", "result": "> 150 µM (not active)"}, {"measurement": "EC50", "setting": "Streptococcus", "result": "> 150 µM (not active)"}]}, {"molecule": "CS(=O)(=O)N1CCC2(CC1)CN(Cc1nccs1)C2", "values": [{"measurement": "AC50", "setting": "Cytochrome P450 1A2", "result": "6.31 µM (inconclusive)"}]}, {"molecule": "O=C(c1cccc(S(=O)(=O)N2CCc3ccccc3C2)c1)N1CCN(c2ccc(O)cc2)CC1", "values": [{"measurement": "AC50", "setting": "[1]", "result": "4.51 µM (active)"}]}, {"molecule": "N#CCCn1c(=O)c(-c2ccc(F)cc2)nc2cnc(N3CCOCC3)nc21", "values": [{"measurement": "AC50", "setting": "Cytochrome P450 1A2", "result": "20 µM (inconclusive)"}]}, {"molecule": "COc1cccc(-c2sc3ccccc3c2-c2ccc(OCCN3CCOCC3)cc2)c1", "values": [{"measurement": "AC50", "setting": "[1]", "result": "2.32 µM (active)"}]}, {"molecule": "Cc1ccc(S(=O)(=O)Nc2ccc3c(c2)CC(=O)N([C@H](C)CO)C[C@@H](C)[C@H](CN(C)Cc2ccc(-c4ccccc4)cc2)O3)cc1", "values": [{"measurement": "AC50", "setting": "[1]", "result": "3.9 µM (active)"}]}, {"molecule": "O=C(c1ccccc1F)c1cn(CC(=O)N2CCOCC2)c2ccccc12", "values": [{"measurement": "AC50", "setting": "Cytochrome P450 3A4", "result": "17.8 µM (inconclusive)"}]}, {"molecule": "COc1ncc2nc(-c3cc(F)cc(F)c3)c(=O)n(C3CC3)c2n1", "values": [{"measurement": "AC50", "setting": "Cytochrome P450 2C9", "result": "31.6 µM (inconclusive)"}, {"measurement": "AC50", "setting": "Cytochrome P450 3A4", "result": "12.6 µM (inconclusive)"}]}, {"molecule": "Cc1ccc(-c2nc(C[S+]([O-])CC(=O)NCc3ccc4c(c3)OCO4)c(C)o2)cc1", "note": "(stereo not drawn)", "values": [{"measurement": "AC50", "setting": "[1]", "result": "> 195 µM (inactive)"}]}, {"molecule": "O=C(NC(Cc1c[nH]c2ccccc12)C(=O)N/N=C/c1cccc2ccccc12)c1cccs1", "note": "(stereo not drawn)", "values": [{"measurement": "EC50", "setting": "Streptokinase A", "result": "> 150 µM (not active)"}, {"measurement": "EC50", "setting": "[2]", "result": "5.65 µM (active)"}, {"measurement": "EC50", "setting": "Streptococcus", "result": "39.5 µM (active)"}]}, {"molecule": "COc1ccccc1CN1CC2(CCN(C(=O)c3ccncc3)CC2)C1", "values": [{"measurement": "AC50", "setting": "Cytochrome P450 3A4", "result": "7.94 µM (inconclusive)"}]}, {"molecule": "CCN(Cc1cc(Cl)cc(C)c1O)Cc1c(O)ccc2ccccc12", "values": [{"measurement": "AC50", "setting": "Cytochrome P450 2C9", "result": "5.01 µM (inconclusive)"}, {"measurement": "AC50", "setting": "Cytochrome P450 1A2", "result": "1 µM (inconclusive)"}]}, {"molecule": "S=C1N(c2ccccc2)C(c2ccc(Cl)cc2)N2CCCN12", "note": "(stereo not drawn)", "values": [{"measurement": "AC50", "setting": "Cytochrome P450 2C9", "result": "10 µM (inconclusive)"}, {"measurement": "AC50", "setting": "Cytochrome P450 3A4", "result": "12.6 µM (inconclusive)"}]}, {"molecule": "CCOC(=O)CCCNC(=O)c1cncc(Br)c1", "values": [{"measurement": "AC50", "setting": "Cytochrome P450 2C19", "result": "39.8 µM (inconclusive)"}]}, {"molecule": "Cc1ccc(Cn2nnc3c(O)nc(C4CCCN(C(=O)Nc5ccc(F)cc5F)C4)nc32)cc1", "note": "(stereo not drawn)", "values": [{"measurement": "AC50", "setting": "Cytochrome P450 2C19", "result": "39.8 µM (inconclusive)"}, {"measurement": "AC50", "setting": "Cytochrome P450 2C9", "result": "22.4 µM (inconclusive)"}, {"measurement": "AC50", "setting": "Cytochrome P450 2D6", "result": "25.1 µM (inconclusive)"}, {"measurement": "AC50", "setting": "Cytochrome P450 1A2", "result": "31.6 µM (inconclusive)"}]}, {"molecule": "CCCN(CC(=O)Nc1ccccc1OC)C(=O)c1ccncc1", "values": [{"measurement": "EC50", "setting": "Streptokinase A", "result": "> 150 µM (not active)"}, {"measurement": "EC50", "setting": "[2]", "result": "> 150 µM (not active)"}, {"measurement": "EC50", "setting": "Streptococcus", "result": "> 150 µM (not active)"}]}]}
